Experimental data as given in ChEMBL document CHEMBL3638781, “Inhibitors of Œ=-secretase” (2015).

Target: Beta-secretase 1 (Homo sapiens, UniProt P56817)
Assay: Fluorescence Quench Assay: The inhibitory activity of compounds was assessed by a fluorescence quench assay of BACE1 activity using commercially available substrate HiLyte Fluor 488-[…](QXLT 520)-OH (SEQ ID NO:1) AnaSpec, San Jose, Calif.) and truncated human beta-secretase, BACE1 (amino acids 1-454) fused to a myc-his tag and secreted from HEK293/BACEect. cells into OptiMEM (Invitrogen). The substrate was dissolved at 1 mg/ml in DMSO.The assay was performed in the presence of OptiMEM (supernatant collected over 24 h and cleared from cellular debris by centrifugation) containing the ectodomain of BACE1, 25 ul water containing the desired 2-fold concentration of test compound and 2% DMSO, 1 uM substrate peptide, 20 mM NaOAc, pH 4.4, and 0.04% Triton-X100 in a total assay volume of 50 ul in a 384 well plate. In general, 25 ul of compound dilution were given to the plate followed by the addition of 10 ul of BACE1 containing OptiMEM diluted 1:10 in water.

Sequence of Beta-secretase 1 (P56817 whole entry, the tested form may be a part): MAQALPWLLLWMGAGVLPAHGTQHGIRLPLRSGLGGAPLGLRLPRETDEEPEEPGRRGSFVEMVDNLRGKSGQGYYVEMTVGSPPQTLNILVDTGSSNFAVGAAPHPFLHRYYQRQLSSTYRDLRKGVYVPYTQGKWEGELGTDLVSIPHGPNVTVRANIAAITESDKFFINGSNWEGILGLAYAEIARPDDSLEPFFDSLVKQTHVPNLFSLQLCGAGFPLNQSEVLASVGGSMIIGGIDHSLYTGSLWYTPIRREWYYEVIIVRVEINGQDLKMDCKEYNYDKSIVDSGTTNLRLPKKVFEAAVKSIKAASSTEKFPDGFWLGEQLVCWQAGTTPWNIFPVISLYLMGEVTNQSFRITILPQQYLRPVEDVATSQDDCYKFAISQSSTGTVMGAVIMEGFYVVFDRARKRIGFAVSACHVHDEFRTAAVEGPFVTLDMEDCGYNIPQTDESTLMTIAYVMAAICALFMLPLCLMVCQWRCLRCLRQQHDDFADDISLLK

- IC50: 11 nM
Compound: CO[C@H]1CC[C@@]2(Cc3ccc(C#N)cc3[C@]23N=C(N)N(Cc2ncccn2)C3=O)C[C@@H]1C
